Laboratory results as given in article PMC6440977, “Nucleoside analogue activators of cyclic AMP-independent protein kinase A of Trypanosoma” (Nature Communications, 2019).
Several values for one entry are separate records, joined by “and”; a condition that tells them apart may be missing. Equal values may be shown once. Read-outs that look alike come from different tables or passages of the source.

Experiments:
[1] = molecular target: T. brucei PKAR-PKAC1 holoenzyme (Trypanosoma brucei, UniProt Q9GU80); experiment: biochemical; type: biochemical; conditions: for In vitro kinase assay: technical replicates
[2] = tested on: T. brucei ∆pkar/∆pkar (pkar KO) cells; experiment: microbe, parasite or virus in culture; type: cell-based, Trypanosoma brucei
[3] = molecular target: T. brucei PKA (Trypanosoma brucei brucei, UniProt Q9GU80); experiment: In vivo PKA reporter assay (VASP Ser-157 phosphorylation, western blot); type: cell-based; conditions: read-out: EC50 in vivo PKA assay, VASP reporter, 15 min treatment, mean ± SD;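 also: T. brucei cells expressing human VASP as heterologous PKA substrate, compound exposure at 37 °C, western blot of phospho (50 kDa) versus unphosphorylated (46 kDa) VASP band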
[4] = tested on: T. brucei BSF cells (WT); experiment: Alamar blue cell viability assay, wild type; conditions: for IC50: 72 h, read-out: IC50 growth WT; for EC50: wild type cells;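 as to all read-outs here: trypanosomes seeded at 5×10^3 per ml and grown 72 h with compound, then resazurin 0.5 mM added for 4 h as the viability read-out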
[5] = tested on: T. brucei PKA holoenzyme (Ty1-PKAC1); type: biochemical, Trypanosoma brucei; conditions: for effect on basal kinase activity of immunoprecipitated holoenzyme, in words / in vitro kinase assay [CPM], average / in vitro kinase assay [CPM]: 1 mM; for in vitro kinase assay [CPM], PKI: 1 mM + 5 µM PKI(5-24); for in vitro kinase assay [CPM], PKI / in vitro kinase assay [CPM], average / in vitro kinase assay [CPM]: Supp Fig 3c; for in vitro kinase assay [CPM], average: average of 3; for in vitro kinase assay [CPM]: independent replicates
[6] = Trypanosoma brucei, 72 h, read-out: IC50 growth pkar KO
[7] = read-out: EC50, Alamar blue cell viability assay, KO; individual replicate results; pkar KO cells
[8] = read-out: EC50, Alamar blue cell viability assay, WT, individual replicate results

T. brucei PKA, sequence (Q38DS1 entry or part of it): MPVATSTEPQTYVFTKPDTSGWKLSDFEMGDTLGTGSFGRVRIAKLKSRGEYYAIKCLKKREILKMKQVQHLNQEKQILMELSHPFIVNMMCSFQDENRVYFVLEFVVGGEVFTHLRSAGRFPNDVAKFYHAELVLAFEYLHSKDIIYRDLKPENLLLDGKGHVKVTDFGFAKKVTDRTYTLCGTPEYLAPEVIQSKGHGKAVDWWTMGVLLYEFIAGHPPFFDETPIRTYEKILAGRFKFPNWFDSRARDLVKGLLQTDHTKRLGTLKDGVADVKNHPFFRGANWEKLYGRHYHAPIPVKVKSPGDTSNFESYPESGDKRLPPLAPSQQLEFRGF
T. brucei PKA, sequence (Q38DR5 entry or part of it, further chain): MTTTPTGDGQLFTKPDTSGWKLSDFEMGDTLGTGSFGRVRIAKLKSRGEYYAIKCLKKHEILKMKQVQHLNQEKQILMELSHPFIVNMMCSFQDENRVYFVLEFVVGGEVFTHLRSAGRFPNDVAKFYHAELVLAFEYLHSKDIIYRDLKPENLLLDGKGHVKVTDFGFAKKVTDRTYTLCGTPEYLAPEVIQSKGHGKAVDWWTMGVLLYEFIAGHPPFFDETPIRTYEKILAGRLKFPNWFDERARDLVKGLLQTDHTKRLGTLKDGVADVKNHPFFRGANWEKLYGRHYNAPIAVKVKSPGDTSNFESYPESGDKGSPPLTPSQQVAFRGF
T. brucei PKA, sequence (Q9GU80 entry or part of it): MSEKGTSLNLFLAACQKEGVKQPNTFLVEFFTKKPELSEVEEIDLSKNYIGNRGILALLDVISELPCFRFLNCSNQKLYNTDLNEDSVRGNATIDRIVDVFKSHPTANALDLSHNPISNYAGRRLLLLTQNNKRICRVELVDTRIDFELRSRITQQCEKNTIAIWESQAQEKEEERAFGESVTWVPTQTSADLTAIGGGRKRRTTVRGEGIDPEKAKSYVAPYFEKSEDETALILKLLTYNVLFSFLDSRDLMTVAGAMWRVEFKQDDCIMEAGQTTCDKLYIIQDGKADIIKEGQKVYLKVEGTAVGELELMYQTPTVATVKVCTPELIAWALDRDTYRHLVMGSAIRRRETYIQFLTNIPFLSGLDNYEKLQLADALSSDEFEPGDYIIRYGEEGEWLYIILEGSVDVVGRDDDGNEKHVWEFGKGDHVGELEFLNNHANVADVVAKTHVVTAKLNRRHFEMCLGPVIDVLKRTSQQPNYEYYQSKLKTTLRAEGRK
T. brucei PKAR-PKAC1 holoenzyme, sequence (Q38DR5 entry or part of it): as the sequence (Q38DR5 entry or part of it, further chain) above
T. brucei PKAR-PKAC1 holoenzyme, sequence (Q9GU80 entry or part of it): as the sequence (Q9GU80 entry or part of it) above

Nc1ncnc2c1c(Br)cn2[C@@H]1O[C@H](CO)[C@@H](O)[C@H]1O [5-Br-Tu, 7-Bromo-7-deazaadenosine]
EC50 [1]: 1700 ± 1400 nM
In vitro kinase assay ([1]; 0.049 µM): 0.15 U/ml and 0.17 U/ml
In vitro kinase assay ([1]; 0.098 µM): 0.25 U/ml and 0.22 U/ml
In vitro kinase assay ([1]; 0.195 µM): 0.27 U/ml and 0.24 U/ml
In vitro kinase assay ([1]; 0.391 µM): 0.37 U/ml and 0.39 U/ml
In vitro kinase assay ([1]; 0.781 µM): 0.53 U/ml and 0.48 U/ml
In vitro kinase assay ([1]; 1.563 µM): 0.72 U/ml and 0.59 U/ml
In vitro kinase assay ([1]; 3.125 µM): 0.85 U/ml and 0.72 U/ml
In vitro kinase assay ([1]; 6.25 µM): 0.89 U/ml and 1.03 U/ml
In vitro kinase assay ([1]; 12.5 µM): 1.09 U/ml and 1.13 U/ml
In vitro kinase assay ([1]; 25 µM): 1.41 U/ml and 1.21 U/ml
In vitro kinase assay ([1]; 50 µM): 1.29 U/ml and 1.22 U/ml
IC50 [2, 6]: 1010 ± 95 nM
EC50 [3]: 625 ± 66 nM
IC50 ([4]; Trypanosoma brucei): 874 ± 122 nM

Nc1ncnc2c1c(Br)cn2[C@@H]1O[C@H](CO)[C@@H](O)[C@H]1O [5BrTu]
EC50 [2, 7]: 680 nM and 1190 nM and 1260 nM and 1090 nM and 619 nM and 797 nM and 1170 nM
EC50 [4, 8]: 615 nM and 1550 nM and 1120 nM and 583 nM and 1080 nM and 749 nM and 605 nM and 692 nM

Nc1ncnc2c1c(I)cn2[C@@H]1O[C@H](CO)[C@@H](O)[C@H]1O [5ITu]
EC50 [2, 7]: 365 nM and 366 nM and 542 nM and 168 nM and 345 nM and 276 nM and 265 nM and 448 nM
EC50 [4, 8]: 134 nM and 378 nM and 467 nM and 417 nM and 291 nM and 390 nM and 317 nM and 247 nM

OCCN(CCO)c1nc(N2CCCCC2)c2nc(N(CCO)CCO)nc(N3CCCCC3)c2n1 [Dipy]
EC50 ([2]; individual replicate results; pkar KO cells; read-out: EC50, Alamar blue cell viability assay, KO): 12400 nM and 21900 nM and 24900 nM and 25200 nM and 9930 nM and 13600 nM and 21100 nM and 14900 nM and 8890 nM and 13300 nM and 13100 nM
EC50 [4, 8]: 12100 nM and 6380 nM and 10700 nM and 10600 nM and 10900 nM and 16800 nM and 6540 nM and 7480 nM and 7070 nM and 13400 nM and 7420 nM

NC(=O)c1cn([C@@H]2O[C@H](CO)[C@@H](O)[C@H]2O)c2ncnc(N)c12 [Sangi]
EC50 [2, 7]: 1570 nM and 868 nM and 2200 nM and 1910 nM and 1630 nM and 1940 nM and 1360 nM and 902 nM
EC50 ([4]; Trypanosoma brucei, read-out: EC50, Alamar blue cell viability assay, WT, individual replicate results): 697 nM
EC50 [4, 8]: 895 nM and 530 nM and 730 nM and 713 nM and 726 nM and 707 nM

NC(=O)c1cn([C@@H]2O[C@H](CO)[C@@H](O)[C@H]2O)c2ncnc(N)c12 [Sangivamycin, 7-Carboxamido-7-deazaadenosine]
EC50 [1]: 10800 nM
In vitro kinase assay ([1]; 0.049 µM): 0.15 U/ml and 0.17 U/ml
In vitro kinase assay ([1]; 0.098 µM): 0.15 U/ml
In vitro kinase assay ([1]; 0.195 µM): 0.19 U/ml and 0.18 U/ml
In vitro kinase assay ([1]; 0.391 µM): 0.2 U/ml and 0.15 U/ml
In vitro kinase assay ([1]; 0.781 µM): 0.17 U/ml
In vitro kinase assay ([1]; 1.563 µM): 0.2 U/ml and 0.16 U/ml
In vitro kinase assay ([1]; 3.125 µM): 0.22 U/ml and 0.24 U/ml
In vitro kinase assay ([1]; 6.25 µM): 0.29 U/ml and 0.28 U/ml
In vitro kinase assay ([1]; 12.5 µM): 0.33 U/ml and 0.31 U/ml
In vitro kinase assay ([1]; 25 µM): 0.44 U/ml and 0.4 U/ml
In vitro kinase assay ([1]; 50 µM): 0.44 U/ml
IC50 [2, 6]: 1550 ± 171 nM
EC50 [3]: 39300 ± 5600 nM
EC50 ([3]; listed as sangivamycin): 39000 nM
IC50 ([4]; Trypanosoma brucei): 713 ± 40 nM

O=c1[nH]cnc2c1ncn2[C@@H]1O[C@@H]2COP(=O)(O)O[C@H]2[C@H]1O [cIMP, inosine-3’,5’-cyclic monophosphate]
effect on basal kinase activity of immunoprecipitated holoenzyme, in words [5]: did not show any significant effects
in vitro kinase assay [CPM], PKI [5]: 620.6 CPM
in vitro kinase assay [CPM], average [5]: 7285.53 CPM
in vitro kinase assay [CPM] [5]: 5568.4 CPM and 8615.56 CPM and 7672.63 CPM

O=c1ccn([C@@H]2O[C@@H]3COP(=O)(O)O[C@H]3[C@H]2O)c(=O)[nH]1 [cUMP, uridine -3’,5’-cyclic monophosphate]
effect on basal kinase activity of immunoprecipitated holoenzyme, in words [5]: did not show any significant effects
in vitro kinase assay [CPM], PKI [5]: 572.53 CPM
in vitro kinase assay [CPM], average [5]: 5670.69 CPM
in vitro kinase assay [CPM] [5]: 4751.21 CPM and 5966.27 CPM and 6294.58 CPM

O=c1[nH]c(=O)c2ncn(C3OC4COP(=O)(O)OC4C3O)c2[nH]1 (stereo not shown) [cXMP, xanthosine-3’,5’-cyclic monophosphate]
effect on basal kinase activity of immunoprecipitated holoenzyme, in words [5]: did not show any significant effects
in vitro kinase assay [CPM], PKI [5]: 870.13 CPM
in vitro kinase assay [CPM], average [5]: 6246.71 CPM
in vitro kinase assay [CPM] [5]: 4909.43 CPM and 6708.76 CPM and 7121.93 CPM
